Data on one compound can be found in patent US20260035384A1, “COMPOUND CONTAINING CYCLOHEXYL” (CHIA TAI TIANQING PHARMACEUTICAL GROUP CO., LTD., priority 2022, published 2026).

Data set [1] deals with T1, AR in VCaP cells (Homo sapiens, UniProt P10275).
T1 construct: Assay on Degradation Activity for AR in VCaP Cells; endogenous in cells; host or cells: VCaP cells
T1 sequence (P10275 1-920): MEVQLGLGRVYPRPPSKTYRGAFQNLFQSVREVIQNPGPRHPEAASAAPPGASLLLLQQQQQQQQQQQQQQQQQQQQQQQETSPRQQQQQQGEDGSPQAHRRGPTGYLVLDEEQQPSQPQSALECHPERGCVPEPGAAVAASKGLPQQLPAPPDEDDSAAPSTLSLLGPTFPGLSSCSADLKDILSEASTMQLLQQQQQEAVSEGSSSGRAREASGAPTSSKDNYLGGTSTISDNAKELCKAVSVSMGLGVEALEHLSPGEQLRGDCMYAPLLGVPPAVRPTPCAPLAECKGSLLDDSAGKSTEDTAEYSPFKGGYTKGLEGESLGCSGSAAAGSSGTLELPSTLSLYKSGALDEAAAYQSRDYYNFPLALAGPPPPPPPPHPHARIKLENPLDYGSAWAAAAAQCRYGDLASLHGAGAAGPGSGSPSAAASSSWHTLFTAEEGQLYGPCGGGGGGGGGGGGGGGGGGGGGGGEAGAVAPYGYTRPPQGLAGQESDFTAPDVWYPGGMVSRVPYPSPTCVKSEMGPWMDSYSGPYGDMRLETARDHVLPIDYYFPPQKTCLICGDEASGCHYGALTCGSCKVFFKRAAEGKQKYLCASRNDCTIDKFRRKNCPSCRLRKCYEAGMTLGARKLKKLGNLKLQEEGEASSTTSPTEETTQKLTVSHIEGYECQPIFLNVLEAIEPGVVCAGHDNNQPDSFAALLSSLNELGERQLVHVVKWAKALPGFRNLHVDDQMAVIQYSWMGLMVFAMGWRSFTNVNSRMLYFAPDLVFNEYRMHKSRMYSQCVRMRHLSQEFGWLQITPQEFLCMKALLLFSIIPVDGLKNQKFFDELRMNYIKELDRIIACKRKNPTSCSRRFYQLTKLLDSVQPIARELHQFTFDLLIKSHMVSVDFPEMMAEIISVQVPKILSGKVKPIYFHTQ
Kind of data set: Assay on degradation activity for AR in VCaP cells (HTRF human androgen receptor detection kit). Particulars: 24 h incubation. The format is cell-based. A digest of the protocol: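 VCaP cells seeded overnight in 2% CSS-FBS phenol red-free DMEM, then treated 24 h with compound at 1000 nM–0.977 nM final, in duplicate. Lysates probed with AR Eu cryptate/d2 antibody HTRF (2 h, 25° C., 665/620 nm); DC50 and Dmax from four-parameter dose-response fits.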
(In general: TR-FRET usually uses a lanthanide donor and a delayed reading to cut background.)

For data set [2], the system named is VCaP cells. Kind of data set: Assay on inhibitory activity for VCaP cell proliferation (CCK-8). In kind it is cell-based. Particulars: Homo sapiens, 168 h incubation. Summed up: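 VCaP cells seeded at 1×10^5 cells/mL in phenol red-free DMEM with 5% charcoal-stripped FBS, treated in duplicate at 10000–0.61 nM final. After 168 h incubation, viability was read with CCK-8.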

Data set [3] can be described thus: In vitro stability in liver microsome. In kind it is in vitro ADME. Particulars: human liver microsome 0.5 mg/mL, NADPH, 37° C. As to the method:
Liver microsome incubation samples (species: human, monkey, rat, and mouse) were prepared by mixing a PBS buffer (pH=7.4), a liver microsome solution (0.5 mg/mL), a test compound, and an NADPH+MgCl2 solution and incubated at 37° C. and 300 rpm for 1 h. Zero-hour samples were prepared by mixing a PBS buffer (pH=7.4), a liver microsome solution (0.5 mg/mL), and a test compound. An acetonitrile solution containing an internal standard was added to the samples, and supernatants were prepared by protein precipitation, diluted, and then assayed by LC/MS/MS.
On the technique in general: Liver microsomes are vesicles of endoplasmic reticulum, rich in cytochrome P450 enzymes.

Usually DC50 stands for the concentration giving 50% degradation. A higher DC50 goes with degradation only at high concentration. The term IC50 denotes the point on the concentration scale where inhibition reaches its midpoint. A lower IC50 goes with higher potency. With `N#Cc1ccc(O[C@H]2CC[C@H](NC(=O)c3ccc(C4CCN(C5CN(c6cc7onc(C8CCC(=O)NC8=O)c7c7ccccc67)C5)CC4)nn3)CC2)cc1Cl` (stereo partly drawn) [Compound 48], the DC50 in data set [1] is not above 1 nM. The IC50 in data set [2] was less than 100 nM. Further, the “Human liver microsome Residuals at 60 min (%)” value in data set [3] is more than 85%.
